Experimental data published in patent US7829087B2, “Methods of treating cognitive impairment” (Elan Pharmaceuticals, Inc., priority 2001, dated 2010).
Values joined by “and” are separate entries in the source; they are usually repeats but may differ in a detail not shown here. Identical values can stand only once.

Assays:
LTP in the dentate gyrus = experiment: Aβ-mediated inhibition of LTP in the dentate gyrus in vitro (hippocampal slices, field EPSPs); format: cell-based, rat; conditions: for Suppression of Aβ inhibition of LTP in vitro (figure legends): dentate gyrus in vitro
Experimental: All experiments were carried out on transverse slices of the rat hippocampus (males, age 3-4 weeks, weight 40-80 g) or mice (males, age 3-4 months). The brains were rapidly removed after decapitation and placed in cold oxygenated (95% O2/5% CO2) media. Slices were cut at a thickness of 350 μm using an Intracell Plus 1000 and placed in a storage container containing oxygenated medium at room temperature (20-22° C.) for 1 hr. The slices were then transferred to a recording chamber for submerged slices and continuously superfused at a rate of 5-6 ml/min at 30-32° C. The control media contained (in mM): NaCl, 120; KCl 2.5, NaH2PO4, 1.25; NaHCO3 26; MgSO4, 2.0; CaCl2, 2.0; D-glucose 10. All solutions contained 100 μM picrotoxin (Sigma) to block GABAA-mediated activity.
Standard electrophysiological techniques were used to record field potentials. Presynaptic stimulation was applied to the medial perforant pathway of the dentate gyrus using a bipolar insulated tungsten wire electrode, and field excitatory postsynaptic potentials (EPSPs) were recorded at a control test frequency of 0.033 Hz from the middle one-third of the molecular layer of the dentate gyrus with a glass microelectrode. The inner blade of the dentate gyrus was used in all studies. In each experiment, an input-output curve (afferent stimulus intensity versus EPSP amplitude) was plotted at the test frequency. For all experiments, the amplitude of the test EPSP was adjusted to one-third of maximum (˜1.2 mV). LTP was evoked by 8 trains of high frequency stimulation (HFS), each of 8 stimuli at 200 Hz, inter-train interval 2s, with the stimulation voltage increased during the HFS so as to evoke an initial EPSP of the train of double the normal test EPSP amplitude. Control (vehicle alone) and experimental levels of LTP were measured on slices prepared from the same hippocampus. Recordings were analysed using p-CLAMP (Axon Instruments, CA, USA). The values reported herein were the means±S.E.M. for n slices. Two-tailed Student's t-test was used for statistical comparison.
Synthetic Aβ (1-42) was obtained from Bachem. For the in vitro experiments, synthetic Aβ1-42 was prepared as a stock solution of 50 μM in ammonium hydroxide (0.1%), stored at −20° C., and then added to physiological medium immediately prior to each experiment. For the in vivo experiments, synthetic Aβ(1-42) (Bachem) was re-suspended in ice-cold milliQ water or Teplow. An aliquot was removed and centrifuged at 100,000 g for 3 h, conditions known to pellet fibrils and protofibrils (Klyubin et al., 2004).
The following integrin-αv antibodies (all IgG1 isotype) were used in the studies: 18C7, 17E6 and 20A9 (all from Calbiochem). The control antibodies used were 7H10, an IgG2a mouse antibody against human ICAM-1 and 27/1, an IgG1 isotype. Other compounds used were echistatin (Source), SM256 (3-[1-[3-(N-imidazol-2-ylamino)propyl]indazol-5-ylcarbonylamino]-2(S)-(2,4,6-trimethylbenzenesulfonylamino)propionic acid trifluoroacetate) which was prepared by Elan Pharmaceuticals (recoded as ELN 151993) according to the methods of Van Maes et al, 1994, superfibernectin (Sigma) and phalloidin (Calbiochem). In the in vivo experiments, SM256 was prepared for i.p administration in a suspension of Tween 80 (Sigma) in saline (15% v/v).

LTP in the CA1 area = experiment: Aβ-mediated inhibition of LTP in the CA1 in vivo; set-up: species or system rat
Human cortical neurons = experiment: Amylin two component toxicity; format: cell-based; conditions: seed amylin 1 hour, then soluble amylin; toxicity after 1 day
Experimental: Seed or aggregated amylin (1 mM) from CPR, Inc. (641-80, lot NG-0213) was made by adding 200 μl water/mg powder and then aging the solution for three days at 37° C. Soluble amylin (5 mM) was prepared by adding 40 μl DMSO/mg powder and sonicating the mixture for 30 minutes in a water bath. Both stock solutions were aliquoted and frozen until ready for use. Soluble amylin stock was diluted to 20 μM in culture medium just prior to use and filtered through an Amicon 30 filter that had been pre-washed with water. Filtered material was then diluted to its appropriate concentration.
Human cortical neurons (at 125,000 cells/96 well) were treated for 1 hour with seed amylin at 5 μM, 100 μl/well. Cells were aspirated and soluble amylin was added back at 5 μM per 100 μl/well. For compound studies, 50 μl of 2× compound was added before adding the soluble amylin.

[1] = test system: Aβ meshwork in human cortical cultures (HCC); experiment: Aβ meshwork formation on human cortical cultures (Aβ immunofluorescence); format: cell-based; conditions: for Inhibition of Aβ meshwork formation (in words): HCC
Experimental: (§1) Tissue culture plates were coated with polyethyleneimine (PEI) in 150 mM sodium borate, pH 8.5, and incubated overnight at room temperature. Prior to adding cells, the wells were washed with PBS and Minimal Essential Media (MEM with 10% FBS) was added until cells were ready for plating. Human fetal cerebral cortex (E13-E16) was rinsed with Hank's Balanced Salt Solution (HBSS). Tissue was triturated in 1 mg of DNAse in HBSS. This suspension was filtered through a 100 micron nylon cell strainer and spun at 250×g for 5 minutes. The cells were resuspended in trypsin and incubated at 37° C. for 20 minutes. Modified Minimal Essential Media (MMEM with 10% FBS and 1 mg of DNase) was added and the cells were resuspended; then collected again by centrifugation. Cells were resuspended in MMEM containing B27, and plated in washed PEI-coated plates at 125,000 cells/well in 96 well plates or at 2.5 million cells/well in 6 well plates. The human cortical cultures (HCC) were incubated for 3 weeks with biweekly medium exchanges prior to treatment.
(§2) Aβ was generated by adding double distilled water (ddH2O) to Aβ to make up a 1 mM stock. This was aged for 3 days at 37° C., aliquoted, and stored frozen at −20° C. Soluble Aβ was made by adding DMSO to Aβ to make a 7.5 mM stock, sonicating for 30 minutes, aliquoting, and freezing at −20° C. Neurotoxic Aβ was generated by adding ddH2O to Aβ, aliquoting, and freezing at −20° C.
HCC treated with Aβ for 72 hours were fixed with 4% paraformaldehyde, stained with 5 μg/ml anti-Aβ-3D6-biotin, and visualized with 10 μg/ml streptavidin-FITC (Jackson).

[2] = test system: human cortical cultures (HCC); experiment: Aβ neurotoxicity in human cortical neurons (alamar blue); format: cell-based; conditions: for Maximal inhibition of toxicity (%): Aβ neurotoxicity in HCC, 3 days; for Inhibition of Aβ neurotoxicity (in words): HCC
Experimental: as §1, §2
HCC were pretreated with antibodies or ligands for 30 minutes in neuronal medium (MEM) supplemented with glutamine and penicillin/streptomycin (basal media). One micromolar Aβ in basal medium was added for 1 hour. The medium was removed and the HCC were treated with antibodies or ligands and 20 μM soluble Aβ in basal medium for 3 days. At three days, the toxicity was determined by incubating in 10% alamar blue in basal medium for two hours. Fluorescence levels were measured relative to control and Aβ treated wells in triplicate.

Cc1cc(C)c(S(=O)(=O)N[C@@H](CNC(=O)c2ccc3c(cnn3CCCNc3ncc[nH]3)c2)C(=O)O)c(C)c1.O=C(O)C(F)(F)F [SM256, 3-[1-[3-(N-imidazol-2-ylamino)propyl]indazol-5-ylcarbonylamino]-2(S)-(2,4,6-trimethylbenzenesulfonylamino)propionic acid trifluoroacetate]
LTP in the presence of Aβ plus SM256 (LTP in the dentate gyrus; SM256 10 μl M plus Aβ, n=5): 129±5% | LTP with SM256 alone (LTP in the dentate gyrus; SM256 10 μl M, no Aβ): 148±7% | Suppression of Aβ inhibition of LTP in vitro (figure legends) (LTP in the dentate gyrus): suppresses inhibition of LTP by Aβ | Suppression of soluble Aβ inhibition of LTP in vivo (figure legends) (LTP in the CA1 area; CA1 area in vivo): suppresses inhibition of LTP by soluble Aβ | LTP after SM256 plus soluble Aβ (LTP in the CA1 area; SM256 40 mg in 1.2 ml vehicle i.p., Aβ 50 pmol i.c.v. 40 min later, 10 min before HFS): 133±5% | Effect of SM256 alone on baseline synaptic transmission or control LTP (LTP in the CA1 area; SM256 40 mg in 1.2 ml vehicle, i.p.): no discernible effect on baseline synaptic transmission or control LTP

C=C1[C@@H](C)[C@H]2[C@H](Cc3ccccc3)NC(=O)[C@]23[C@H](OC(C)=O)/C=C/[C@@](C)(O)C(=O)[C@@H](C)C/C=C/[C@H]3[C@@H]1O [cytochalasin D]
Protection against amylin two component toxicity (in words) (Human cortical neurons): amylin two component toxicity is further inhibited

Aβ: Synthetic Aβ (1-42) from Bachem, used to inhibit LTP
LTP (EPSP, % baseline) in the presence of Aβ alone (LTP in the dentate gyrus; Aβ 500 nM, 1 h post-HFS, dentate gyrus slices): 105±3 % baseline and 105±6 % baseline and 103±3 % baseline | LTP (% baseline) in the presence of soluble fibril-free Aβ (LTP in the CA1 area; Aβ 50 pmol in 5 μl i.c.v., 10 min prior to HFS, 3 h post-HFS, anaesthetized rats): 105±5% | LTP after peripheral vehicle followed by central injection of Aβ (LTP in the CA1 area; vehicle i.p., Aβ 50 pmol i.c.v.): 103±10%

Fibronectin: αvβ1 integrin ligand, large multidomain glycoprotein
Meshwork Inhibition ([1]; Aβ meshwork on HCC, Table 1): Yes | Inhibition of Aβ meshwork formation (in words) [1]: capable of inhibiting Aβ meshwork formation and neurotoxicity | Maximal inhibition of toxicity (%) [2]: 32% | Inhibition of Aβ neurotoxicity (in words) [2]: capable of inhibiting Aβ meshwork formation and neurotoxicity

Laminin
Inhibition of Aβ meshwork formation (in words) [1]: not capable of inhibiting Aβ meshwork or neurotoxicity | Maximal inhibition of toxicity (%) [2]: 20% | Inhibition of Aβ neurotoxicity (in words) [2]: not capable of inhibiting Aβ meshwork or neurotoxicity

echistatin (QCESGPCCRNCKFLKEGTICKRARGDDMDDYCNGKTCDCPRNPHKGPAT)
Suppression of Aβ inhibition of LTP in vitro (figure legends) (LTP in the dentate gyrus): suppresses inhibition of LTP by Aβ | LTP in the presence of Aβ plus echistatin (LTP in the dentate gyrus; echistatin 50 nM plus Aβ, n=5): 143±6% | LTP with echistatin alone (LTP in the dentate gyrus; echistatin 50 nM, no Aβ): 158±5%
